Patent publication US6444617B1, “Fused-heterocycle dicarboxylic acid diamide derivatives or salts thereof, herbicide and usage thereof” (Nihon Nohyaku Co., Ltd., priority 1998, dated 2002)

Tests used:
Format in all cases: in vivo
wheat (Wh) = experiment: Test Example 3: phytotoxicity to upland crop plants, treatment before emergence; details: dosage 5 kg/ha
Description: (§1) Herbicidal Effect on Upland Weeds Before Emergence […] Then, a liquid preparation of an agent comprising a prescribed concentration of a compound of the present invention (the compounds listed in Tables 1-14) as active ingredient was sprayed. Fourteen days after the treatment, the herbicidal effect was investigated, from which weed-killing rate was calculated in the same manner as in Test Example 1, and the herbicidal effect was judged. At the same time, phytotoxicity to soybean plant and wheat was investigated and judged according to the criterion mentioned below.

soybean plant (So) = experiment: as above; details: dosage 5 kg/ha
Description: as §1

[1] = test system: barnyard grass (Echinochloa crus-galli Beauv.); experiment: Test Example 1: herbicidal effect on paddy field weeds before emergence; details: Dosage 5 kg/ha
Description: (§2) Test for Herbicidal Effect on Paddy Field Weeds Before Emergence Soil was filled into 1/10000 are pots and brought into a state of paddy field, in which seeds of barnyard grass (Echinochloa crus-galli Beauv.) and bulrush (Scirpus juncoides Roxb.) were made to be before germination. The soil in the pots were treated with a solution containing a predetermined dosage of a chemical agent comprising a compound of the present invention listed in Tables 1 to 14. Twenty one days after the treatment, the herbicidal effect was investigated, the result was compared with that in untreated plot to calculate the weed-controlling rate, and the herbicidal effect was judged according to the following criterion: […]

[2] = test system: bulrush (Scirpus juncoides Roxb.); experiment: as above; details: Dosage 5 kg/ha
Description: as §2

[3] = test system: monochoria (Monochoria vaginalis Presl); experiment: Test Example 2: herbicidal effect on paddy field weeds after emergence; details: Dosage 5 kg/ha; one-leaved stage; 21 days after treatment
Description: (§3) Test for Herbicidal Effect on Paddy Field Weeds After Emergence. Soil was filled into 1/10000 are pots and brought into a state of paddy field, in which seeds of barnyard grass (Echinochloa crus-galli Beauv.), bulrush (Scirpus juncoides Roxb.) and monochoria (Monochoria vaginalis Presl) were made to reach one-leaved stage. The soil in the pots were treated with a solution containing a predetermined dosage of a chemical agent comprising a compound of the present invention listed in Tables 1 to 14. Twenty one days after the treatment, the herbicidal effect was investigated and the result was compared with that in untreated plot to calculate the weed-controlling rate, and the herbicidal effect was judged according to the same criterion as in Test Example 1.

[4] = test system: barnyard grass (Echinochloa crus-galli Beauv.); experiment: as above; details: Dosage 5 kg/ha; one-leaved stage; 21 days after treatment
Description: as §3

[5] = test system: bulrush (Scirpus juncoides Roxb.); experiment: as above; details: Dosage 5 kg/ha; one-leaved stage; 21 days after treatment
Description: as §3

soybean plant = experiment: Test Example 4: phytotoxicity to upland crop plants, treatment after emergence; details: dosage 5 kg/ha, sprayed after emergence, judged 14 days after treatment
Excerpt: (§4) Herbicidal Effect on Upland Weeds After Emergence Polyethylene-made vats having a size of 10 cm (length)×20 cm (width)×5 cm (height) were filled with soil, sown with seeds of the following noxious upland weeds and with seeds of soybean plant and wheat as upland crop plants, and then covered with soil. The plants were made to grow up until they reached the leaf-stages mentioned below, after which an agent comprising a prescribed concentration of a compound of the present invention (listed in Tables 1 to 14) as active ingredient was sprayed. Fourteen days after the treatment, the herbicidal effect was investigated, from which weed-killing rate was calculated in the same manner as in Test Example 1 and the results were judged. […] Sample weeds, their leaf stages, and leaf stages of soybean plant and wheat were as follows: [table]

wheat = experiment: as above; details: dosage 5 kg/ha, sprayed after emergence, judged 14 days after treatment
Excerpt: as §4

[6] = test system: barnyard grass (Echinochloa crus-galli Beauv.), Ec; experiment: Test Example 4: herbicidal effect on upland weeds after emergence; details: dosage 5 kg/ha; sprayed after emergence; judged 14 days after treatment
Excerpt: as §4

[7] = test system: cocklebur (Xanthium strumarium L.), Xs; experiment: as above; details: dosage 5 kg/ha; sprayed after emergence; judged 14 days after treatment
Excerpt: as §4

[8] = test system: cleavers (Galium aparine L.), Ga; experiment: as above; details: dosage 5 kg/ha; sprayed after emergence; judged 14 days after treatment
Excerpt: as §4

[9] = test system: bird's eye speedwell (Veronica persica Poir.), Vp; experiment: as above; details: dosage 5 kg/ha; sprayed after emergence; judged 14 days after treatment
Excerpt: as §4

[10] = test system: velvetleaf (Abutilon theophtasti L.), At; experiment: as above; details: dosage 5 kg/ha; sprayed after emergence; judged 14 days after treatment
Excerpt: as §4

[11] = test system: forxtail grass (Alopecurus aequalis var. amurensis Ohwi), Am; experiment: as above; details: dosage 5 kg/ha; sprayed after emergence; judged 14 days after treatment
Excerpt: as §4

[12] = test system: barnyard grass (Echinochloa crus-galli Beauv.), Ec; experiment: Test Example 3: herbicidal effect on upland weeds before emergence; details: dosage 5 kg/ha
Description: as §1, with “judged.” for “judged. At the same time, phytotoxicity to soybean plant and wheat was investigated and judged according to the criterion mentioned below.”

[13] = test system: cocklebur (Xanthium strumarium L.), Xs; experiment: as above; details: dosage 5 kg/ha
Description: as §1, with “judged.” for “judged. At the same time, phytotoxicity to soybean plant and wheat was investigated and judged according to the criterion mentioned below.”

[14] = test system: cleavers (Galium aparine L.), Ga; experiment: as above; details: dosage 5 kg/ha
Description: as §1, with “judged.” for “judged. At the same time, phytotoxicity to soybean plant and wheat was investigated and judged according to the criterion mentioned below.”

[15] = test system: bird's eye speedwell (Veronica persica Poir.), Vp; experiment: as above; details: dosage 5 kg/ha
Description: as §1, with “judged.” for “judged. At the same time, phytotoxicity to soybean plant and wheat was investigated and judged according to the criterion mentioned below.”

[16] = test system: velvetleaf (Abutilon theophtasti L.), At; experiment: as above; details: dosage 5 kg/ha
Description: as §1, with “judged.” for “judged. At the same time, phytotoxicity to soybean plant and wheat was investigated and judged according to the criterion mentioned below.”

[17] = test system: forxtail grass (Alopecurus aequalis var. amurensis Ohwi), Am; experiment: as above; details: foxtail grass, dosage 5 kg/ha
Description: as §1, with “judged.” for “judged. At the same time, phytotoxicity to soybean plant and wheat was investigated and judged according to the criterion mentioned below.”

Row | Structure (SMILES) | Phytotoxicity Wh (wheat (Wh)) | Phytotoxicity So (soybean plant (So)) | Pre-emergence treatment Barnyard grass (herbicidal effect) [1] | Pre-emergence treatment Bulrush (herbicidal effect) [2] | Post-emergence treatment Monochoria (herbicidal effect) [3] | Post-emergence treatment Barnyard grass (herbicidal effect) [4] | Post-emergence treatment Bulrush (herbicidal effect) [5] | Phytotoxicity So (soybean plant) | Phytotoxicity Wh (wheat) | Herbicidal effect Ec [6] | Herbicidal effect Xs [7] | Herbicidal effect Ga [8] | Herbicidal effect Vp [9] | Herbicidal effect At [10] | Herbicidal effect Am [11] | Herbicidal effect Ec [12] | Herbicidal effect Xs [13] | Herbicidal effect Ga [14] | Herbicidal effect Vp [15] | Herbicidal effect At [16] | other results
1 | CCc1ccc(Cl)c(CC)c1NC(=O)c1cc2ccccc2nc1C(=O)NC [359-1] | 0 (Crop-killing rate is 0-20% (No Phytotoxicity).) | 0 (Crop-killing rate is 0-20% (No Phytotoxicity).) | 5 (Weed-killing rate is 100%.) | 5 (Weed-killing rate is 100%.) | 5 (Weed-killing rate is 100%.) | 5 (Weed-killing rate is 100%.) | 5 (Weed-killing rate is 100%.) | 3 (Crop-killing rate is 70-89%.) | 2 (Crop-killing rate is 40-69%.) | 5 (Weed-killing rate is 100%.) | 5 (Weed-killing rate is 100%.) | 5 (Weed-killing rate is 100%.) | 5 (Weed-killing rate is 100%.) | 5 (Weed-killing rate is 100%.) | 5 (Weed-killing rate is 100%.) | 5 (Weed-killing rate is 100%.) | 5 (Weed-killing rate is 100%.) | 5 (Weed-killing rate is 100%.) | 5 (Weed-killing rate is 100%.) | 5 (Weed-killing rate is 100%.) | Herbicidal effect Am [17]: 5 (Weed-killing rate is 100%.)
2 | CCNC(=O)c1nc2ccccc2cc1C(=O)Nc1c(CC)ccc(Cl)c1CC [359-2] | 0 (Crop-killing rate is 0-20% (No Phytotoxicity).) | 1 (Crop-killing rate is 1-39%.) | 5 (Weed-killing rate is 100%.) | 5 (Weed-killing rate is 100%.) | 5 (Weed-killing rate is 100%.) | 5 (Weed-killing rate is 100%.) | 5 (Weed-killing rate is 100%.) | 4 (Crop-killing rate is 90-99%.) | 3 (Crop-killing rate is 70-89%.) | 5 (Weed-killing rate is 100%.) | 5 (Weed-killing rate is 100%.) | 5 (Weed-killing rate is 100%.) | 5 (Weed-killing rate is 100%.) | 5 (Weed-killing rate is 100%.) | 5 (Weed-killing rate is 100%.) | 5 (Weed-killing rate is 100%.) | 5 (Weed-killing rate is 100%.) | 5 (Weed-killing rate is 100%.) | 5 (Weed-killing rate is 100%.) | 5 (Weed-killing rate is 100%.) | Herbicidal effect Am [17]: 5 (Weed-killing rate is 100%.)
3 | CCCNC(=O)c1nc2ccccc2cc1C(=O)Nc1c(CC)ccc(Cl)c1CC [359-3] | 0 (Crop-killing rate is 0-20% (No Phytotoxicity).) | 0 (Crop-killing rate is 0-20% (No Phytotoxicity).) | 5 (Weed-killing rate is 100%.) | 5 (Weed-killing rate is 100%.) | 5 (Weed-killing rate is 100%.) | 5 (Weed-killing rate is 100%.) | 5 (Weed-killing rate is 100%.) | 3 (Crop-killing rate is 70-89%.) | 2 (Crop-killing rate is 40-69%.) | 5 (Weed-killing rate is 100%.) | 5 (Weed-killing rate is 100%.) | 5 (Weed-killing rate is 100%.) | 5 (Weed-killing rate is 100%.) | 5 (Weed-killing rate is 100%.) | 5 (Weed-killing rate is 100%.) | 5 (Weed-killing rate is 100%.) | 5 (Weed-killing rate is 100%.) | 5 (Weed-killing rate is 100%.) | 5 (Weed-killing rate is 100%.) | 5 (Weed-killing rate is 100%.) | Herbicidal effect Am [17]: 5 (Weed-killing rate is 100%.)
4 | CCc1ccc(Cl)c(CC)c1NC(=O)c1cc2ccccc2nc1C(=O)NC(C)(C)C [359-4] | 0 (Crop-killing rate is 0-20% (No Phytotoxicity).) | 2 (Crop-killing rate is 40-69%.) | 5 (Weed-killing rate is 100%.) | 5 (Weed-killing rate is 100%.) | 5 (Weed-killing rate is 100%.) | 5 (Weed-killing rate is 100%.) | 5 (Weed-killing rate is 100%.) | 4 (Crop-killing rate is 90-99%.) | 2 (Crop-killing rate is 40-69%.) | 5 (Weed-killing rate is 100%.) | 5 (Weed-killing rate is 100%.) | 5 (Weed-killing rate is 100%.) | 5 (Weed-killing rate is 100%.) | 5 (Weed-killing rate is 100%.) | 5 (Weed-killing rate is 100%.) | 5 (Weed-killing rate is 100%.) | 5 (Weed-killing rate is 100%.) | 5 (Weed-killing rate is 100%.) | 5 (Weed-killing rate is 100%.) | 5 (Weed-killing rate is 100%.) | Herbicidal effect Am [17]: 5 (Weed-killing rate is 100%.)
5 | CCc1ccc(Cl)c(CC)c1NC(=O)c1cc2ccccc2nc1C(=O)NCC(C)(C)C [359-5] | 0 (Crop-killing rate is 0-20% (No Phytotoxicity).) | 0 (Crop-killing rate is 0-20% (No Phytotoxicity).) | 5 (Weed-killing rate is 100%.) | 5 (Weed-killing rate is 100%.) | 5 (Weed-killing rate is 100%.) | 5 (Weed-killing rate is 100%.) | 5 (Weed-killing rate is 100%.) | 2 (Crop-killing rate is 40-69%.) | 3 (Crop-killing rate is 70-89%.) | 5 (Weed-killing rate is 100%.) | 5 (Weed-killing rate is 100%.) | 5 (Weed-killing rate is 100%.) | 5 (Weed-killing rate is 100%.) | 5 (Weed-killing rate is 100%.) | 5 (Weed-killing rate is 100%.) | 5 (Weed-killing rate is 100%.) | 5 (Weed-killing rate is 100%.) | 5 (Weed-killing rate is 100%.) | 5 (Weed-killing rate is 100%.) | 5 (Weed-killing rate is 100%.) | Herbicidal effect Am [17]: 5 (Weed-killing rate is 100%.)
